Experimental data published in ChEMBL document CHEMBL5505983, “Design, synthesis, and molecular modeling studies of novel 2-quinolone-1,2,3-triazole-α-aminophosphonates hybrids as dual antiviral and antibacterial agents” (Eur J Med Chem, 2024).
Converted amounts (≈) assume the structure as drawn.

Tests used:
[1] = tested on: Pseudomonas aeruginosa; test: Antibacterial activity against Pseudomonas aeruginosa CIP A22 assessed as reduction in bacterial growth by micro-broth dilution method; format: functional
[2] = tested on: Staphylococcus aureus; test: Antibacterial activity against Staphylococcus aureus CIP 54127 assessed as reduction in bacterial growth by micro-broth dilution method; format: functional
[3] = tested on: Zika virus; test: Antiviral activity against Zika virus infected in african green monkey Vero E6 cells assessed as inhibition of cytopathic effect by microscopy based analysis; format: functional, organism-based; details: Vero C1008
[4] = tested on: Enterococcus faecalis; test: Ratio of MBC to MIC for Enterococcus faecalis; format: functional
[5] = Cytotoxicity against African green monkey Vero A cells; format: toxicity, cell-based; details: chlorocebus sabaeus
[6] = tested on: Yellow fever virus; test: Antiviral activity against Yellow fever virus infected in human Huh-7 cells assessed as inhibition of cytopathic effect by microscopy based analysis; format: functional, organism-based
[7] = tested on: Enterococcus faecalis; test: Antibacterial activity against Enterococcus faecalis assessed as reduction in bacterial growth by micro-broth dilution method; format: functional
[8] = tested on: Escherichia coli; test: Bactericidal activity against Escherichia coli CIP 53154; format: functional
[9] = tested on: Staphylococcus aureus; test: Ratio of MBC to MIC for Staphylococcus aureus CIP 54127; format: functional
[10] = Selectivity index, ratio of CC50 for African green monkey Vero A cells to IC50 for CHIKV infected in African green monkey Vero A cells; format: toxicity; details: read-out: Ratio CC50/IC50
[11] = tested on: Escherichia coli; test: Ratio of MBC to MIC for Escherichia coli CIP 53154; format: functional
[12] = tested on: Pseudomonas aeruginosa; test: Bactericidal activity against Pseudomonas aeruginosa CIP A22; format: functional
[13] = tested on: Enterovirus A71; test: Antiviral activity against human EV71 infected in human RD cells assessed as inhibition of cytopathic effect by microscopy based analysis; format: functional, organism-based; details: Enterovirus A
[14] = tested on: Enterococcus faecalis; test: Bactericidal activity against Enterococcus faecalis; format: functional
[15] = tested on: Human rhinovirus sp.; test: Antiviral activity against Human rhinovirus A2 infected in human HeLa-RH cells assessed as inhibition of cytopathic effect by microscopy based analysis; format: functional, organism-based
[16] = tested on: Chikungunya virus; test: Antiviral activity against CHIKV infected in African green monkey Vero A cells assessed as inhibition of cytopathic effect by microscopy based analysis; format: functional, organism-based
[17] = Cytotoxicity against human Huh-7 cells; format: toxicity, cell-based
[18] = Cytotoxicity against human HeLa-RH cells; format: toxicity, cell-based
[19] = tested on: Pseudomonas aeruginosa; test: Ratio of MBC to MIC for Pseudomonas aeruginosa CIP A22; format: functional
[20] = Cytotoxicity against human RD cells; format: toxicity, cell-based
[21] = tested on: Human rhinovirus sp.; test: Antiviral activity against Human rhinovirus B14 infected in human HeLa-RH cells assessed as inhibition of cytopathic effect by microscopy based analysis; format: functional, organism-based
[22] = tested on: Staphylococcus aureus; test: Bactericidal activity against Staphylococcus aureus CIP 54127; format: functional
[23] = Cytotoxicity against African green monkey Vero E6 cells; format: toxicity, cell-based, Vero C1008; details: chlorocebus sabaeus
[24] = tested on: Escherichia coli; test: Antibacterial activity against Escherichia coli CIP 53154 assessed as reduction in bacterial growth by micro-broth dilution method; format: functional

Structure (SMILES) | MIC [1] [µM] | MIC [2] [µM] | IC50 [3] [µM] | Ratio [4] | CC50 [5] [µM] | IC50 [6] [µM] | MIC [7] [µM] | MBC [8] [µM] | Ratio [9] | selectivity ratio [10] | Ratio [11] | MBC [12] [µM] | IC50 [13] [µM] | MBC [14] [µM] | IC50 [15] [µM] | IC50 [16] [µM] | CC50 [17] [µM] | CC50 [18] [µM] | Ratio [19] | CC50 [20] [µM] | also measured
CCOP(=O)(OCC)C(Nc1ccccc1OC)c1cc(Cn2cc(Cn3c(=O)cc(C)c4cc(Br)ccc43)nn2)ccc1O (stereo not given) | 3590 (≈ 2500 µg/mL) | 230 (≈ 160 µg/mL) | > 100 | 1 | > 100 | > 100 | 110 (≈ 76.6 µg/mL) | 1790 (≈ 1250 µg/mL) | 1.96 | > 1.23 | 1.99 | 3590 (≈ 2500 µg/mL) | > 100 | 110 (≈ 76.6 µg/mL) | > 0.41 | 81.6 | 51.2 | > 33.3 | 2.01 | > 33.3 | IC50 [21]: > 100 µM; MBC [22]: 450 µM (≈ 313 µg/mL); CC50 [23]: > 100 µM; MIC [24]: 900 µM (≈ 627 µg/mL)
CCN(CC)CCCC(C)Nc1ccnc2cc(Cl)ccc12 (stereo not given) [CHLOROQUINE] |  |  |  |  | 89 |  |  |  |  |  |  |  |  |  |  | 11 |  |  |  |  | 
CCOP(=O)(OCC)C(Nc1ccc(F)cc1)c1cc(Cn2cc(Cn3c(=O)cc(C)c4ccccc43)nn2)ccc1O (stereo not given) | 2060 (≈ 1250 µg/mL) | 260 (≈ 157 µg/mL) | > 100 | 1 | 75.2 | > 100 | 70 (≈ 42.4 µg/mL) | 1040 (≈ 630 µg/mL) | 1.96 | 2.83 | 2.04 | 2060 (≈ 1250 µg/mL) | > 100 | 70 (≈ 42.4 µg/mL) | > 3.7 | 26.6 | 31.4 | 83.8 | 1.98 | 75.8 | IC50 [21]: > 100 µM; MBC [22]: 510 µM (≈ 309 µg/mL); CC50 [23]: > 100 µM; MIC [24]: 510 µM (≈ 309 µg/mL)
